How the values were obtained:
[1] = target: T1, GST-JAK2(808-1132) (Homo sapiens, UniProt O60674); assay: EPK JAK/TYK-kinase family profiling assay (Caliper mobility shift), JAK2; type: biochemical; settings: Caliper mobility shift assay of Example 187, 20 μM ATP, read-out: IC50 with Test in present Example
T1 construct: GST-JAK2(808-1132) is purchased from Invitrogen; purchased Invitrogen (Carlsbad, USA) #4288
In short: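 Caliper mobility-shift assay with the GST-tagged kinase domain and a fluorescently labeled peptide substrate plus ATP, run 60 min at 30° C and then stopped with EDTA buffer. Turnover was taken as the substrate/product ratio. Compounds were tested at eight final concentrations from 10 to 0.003 μM.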

[2] = target: T2, GST-JAK2 (Homo sapiens, UniProt O60674); assay: JAK2 kinase assay of the general description (alternative method, flash plate); type: biochemical; settings: 1.0 μM ATP, read-out: IC50 with test in general description (named “alternative method to that given in the examples”) (“flash plate”)
T2 construct: the amino acid domain ASP751-VAL1129 of the JAK2 protein
T2 sequence (O60674 751-1129): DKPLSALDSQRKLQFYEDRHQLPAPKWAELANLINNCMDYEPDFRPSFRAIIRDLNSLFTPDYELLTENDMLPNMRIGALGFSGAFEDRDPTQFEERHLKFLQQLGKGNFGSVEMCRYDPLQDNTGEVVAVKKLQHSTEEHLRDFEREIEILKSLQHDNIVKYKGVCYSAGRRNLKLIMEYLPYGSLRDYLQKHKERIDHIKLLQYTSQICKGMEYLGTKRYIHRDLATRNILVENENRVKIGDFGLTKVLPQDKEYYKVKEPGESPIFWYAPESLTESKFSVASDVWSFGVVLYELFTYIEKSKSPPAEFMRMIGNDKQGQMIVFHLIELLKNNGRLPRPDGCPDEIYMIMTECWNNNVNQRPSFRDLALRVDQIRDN
Experimental: Baculovirus including the amino acid domain ASP751-VAL1129 of the JAK2 protein is obtainable by ProQinase, Freiburg, Germany. The virus is scaled up as following: Virus containing media is collected from the transfected cell culture and used for infection to increase its titer. Virus containing media obtained after two rounds of infection is used for large-scale protein expression. For large-scale protein expression 100 cm^2 round tissue culture plates are seeded with 5×10^7 cells/plate and infected with 1 mL of virus-containing media (approx. 5 MOIs). After 3 days the cells are scraped off the plate and centrifuged at 500 rpm for 5 min. Cell pellets from 10-20, 100 cm^2 plates, are re-suspended in 50 mL of ice-cold lysis buffer (25 mMTris-HCl, pH7.5, 2 mMEDTA, 1% NP-40, 1 mM DTT, 1 mMP MSF). The cells are stirred on ice for 15 min and then centrifuged at 5000 rpms for 20 min. The protein is purified by loading the centrifuged cell lysate onto a 2 mL glutathione-sepharose column and washed three times with 10 mL of 25 mM Tris-HCl, pH 7.5, 2 mM EDTA, 1 mM DTT, 200 mM NaCl. The GST-tagged proteins are then eluted by 10 applications (1 mL each) of 25 mM Tris-HCl, pH 7.5, 10 mM reduced-glutathione, 100 mM NaCl, 1 mM DTT, 10% Glycerol and stored at −70° C.
Cancer Cell; 5: 231-239]. The test compound is dissolved in DMSO (10 mM) and stored at −20° C. Serial dilutions are freshly made in DMSO and are […] concentrated than test solutions (“pre-dilution plates”). They are further diluted with pure water to yield “master plates” containing 3 times concentrated test solutions in 3% DMSO. The final volume of the assay is 30 μL containing 10 μL of test solution (1% DMSO), 10 μL assay mix including the assay components described by Garcia-Echeverria (2004) and in the following section as well as 10 μL enzyme. The pipetting steps can be programmed to be performed either on the MultiPROBE Iix, MultiPROBE IILx or HamiltonSTAR robots in the 96 well format.
The protein kinase assays are carried as described in details by Garcia-Echeverria (see above). The assay for JAK2 is carried out in 96-well plates at ambient temperature for 10 min (filter-biding method) or 30 min (flash plates) in a finial volume of 30 μL including the following components: 300 ng of GST-JAK2, 20 mM Tris-HCl, pH 7.5, 1.0 mM MnCl2, 10 mM MgCl2, 1 mM DTT, 3 μg/mL poly(Glu, Tyr) 4:1, 1% DMSO and 1.0 μM ATP (γ-[^33P]-ATP 0.1 μCi); The assays are terminated by the addition of 20 μl of 125 mM EDTA. The capturing of the phosphorylated peptides by the filter-binding method is performed as following: 40 μL of the reaction mixture are transferred onto Immobilon-PVDF membranes previously soaked for 5 min with methanol, rinsed with water, then soaked for 5 min with 0.5% H3PO4 and mounted on vacuum manifold with disconnected vacuum source. After spotting all samples, vacuum is connected and each well rinsed with 200 μl 0.5% H3PO4. Free membranes are removed and washed 4× on a shaker with 1.0% H3PO4, once with ethanol. Membranes are counted after drying at ambient temperature, mounting in Packard TopCount 96-well frame, and addition of 10 μl/well of Microscint. The plates are eventually sealed and counted in a microplate scintillation counter (TopCount NXT, TopCount NXT HTS, PerkinElmer, Brussels, Belgium).
The assays for the flash plate method is carried out in a total volume of 30 μL at RT in conventional 96-well flash plates. The reaction is stopped after 30 min by the addition of 20 μL of 125 mM EDTA The assay plates are then washed three times with PBS and dried at room temperature. The plates are sealed and counted in a microplate scintillation counter (TopCount NXT, TopCount NXT HTS). IC50 values are calculated by linear regression analysis of the percentage inhibition of the compound either in duplicate, at four concentrations (usually 0.01, 0.1, 1 and 10 μM) or as 8 single point IC50 starting at 10 μM following by 1:3 dilutions.

T1 sequence (O60674 808-1132): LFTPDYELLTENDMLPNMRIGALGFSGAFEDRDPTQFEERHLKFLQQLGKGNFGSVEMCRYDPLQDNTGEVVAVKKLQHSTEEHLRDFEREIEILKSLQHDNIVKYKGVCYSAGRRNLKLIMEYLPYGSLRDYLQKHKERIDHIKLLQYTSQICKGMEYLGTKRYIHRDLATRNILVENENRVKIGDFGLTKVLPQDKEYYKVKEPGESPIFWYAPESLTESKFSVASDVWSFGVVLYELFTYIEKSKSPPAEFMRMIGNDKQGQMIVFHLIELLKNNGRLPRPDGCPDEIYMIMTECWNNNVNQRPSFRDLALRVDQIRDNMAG

Row | SMILES | IC50 [1] | melting point | IC50 [2]
1 | COc1cc(Nc2nc3cccc(-c4ccc(C(N)=O)cc4)c3o2)cc(OC)c1OC [Example 16, 4-[2-(3,4,5-Trimethoxy-phenylamino)-benzooxazol-7-yl]-benzamide] | 35 nM | > 280 °C | 93 nM
2 | COc1cc(Nc2nc3cccc(-c4ccc(S(C)(=O)=O)cc4)c3o2)cc(OC)c1OC [Example 17, [7-(4-Methanesulfonyl-phenyl)-benzooxazol-2-yl]-(3,4,5-trimethoxy-phenyl)-amine] | 12 nM | 205 to 207 °C | 40 nM
3 | COc1cc(Nc2nc3cccc(-c4cccc(N)c4)c3o2)cc(OC)c1OC [Example 10, [7-(3-Amino-phenyl)-benzooxazol-2-yl]-(3,4,5-trimethoxy-phenyl)-amine] | – | 145 to 170 °C | 132 nM
4 | COc1cc(Nc2nc3cccc(-c4cccc(C)c4)c3o2)cc(OC)c1OC [Example 1, (7-m-Tolyl-benzooxazol-2-yl)-(3,4,5-trimethoxy-phenyl)-amine] | – | 155 to 158 °C | 337 nM
5 | COc1cc(Nc2nc3cccc(-c4cccc(CN)c4)c3o2)cc(OC)c1OC [Example 32, [7-(3-Aminomethyl-phenyl)-benzooxazol-2-yl]-(3,4,5-trimethoxy-phenyl)-amine] | – | 145 to 150 °C | 270 nM
6 | COc1ccc(-c2cccc3nc(Nc4cc(OC)c(OC)c(OC)c4)oc23)cn1 [Example 12, [7-(6-Methoxy-pyridin-3-yl)-benzooxazol-2-yl]-(3,4,5-trimethoxy-phenyl)-amine] | – | 192 to 193 °C | 670 nM
7 | Nc1cccc(-c2cccc3nc(Nc4ccc(N5CCOCC5)nc4)oc23)c1 [Example 42, [7-(3-Amino-phenyl)-benzooxazol-2-yl]-(6-morpholin-4-yl-pyridin-3-yl)-amine] | – | 235 to 237 °C | 1200 nM
8 | COc1cccc(-c2cccc3nc(Nc4cc(OC)c(OC)c(OC)c4)oc23)c1 [Example 4, [7-(3-Methoxy-phenyl)-benzooxazol-2-yl]-(3,4,5-trimethoxy-phenyl)-amine] | – | 167 to 170 °C | 99 nM
9 | COc1cc(Nc2nc3ccnc(-c4ccc(S(N)(=O)=O)cc4)c3o2)cc(OC)c1OC [Example 38, 4-[2-(3,4,5-Trimethoxy-phenylamino)-oxazolo[5,4-c]pyridin-4-yl]-benzenesulfonamide] | 310 nM | > 280 °C | 450 nM
10 | COc1cccc(-c2cccc3nc(Nc4ccc(N5CCOCC5)cc4)oc23)c1 [Example 39, [7-(3-Methoxy-phenyl)-benzooxazol-2-yl]-(4-morpholin-4-yl-phenyl)-amine] | – | 180 to 182 °C | 1200 nM
11 | COc1cc(Nc2nc3cccc(-c4cccc(Cl)c4)c3o2)cc(OC)c1OC [Example 9, [7-(3-Chloro-phenyl)-benzooxazol-2-yl]-(3,4,5-trimethoxy-phenyl)-amine] | – | 199 to 201 °C | 590 nM
12 | COc1cc(Nc2nc3cccc(-c4ccc(S(N)(=O)=O)cc4)c3o2)cc(OC)c1OC [Example 18, 4-[2-(3,4,5-Trimethoxy-phenylamino)-benzooxazol-7-yl]-benzenesulfonamide] | 10 nM | 247 to 252 °C | 10 nM
13 | COc1cc(Nc2nc3cccc(-c4cccnc4)c3o2)cc(OC)c1OC [Example 3, (7-Pyridin-3-yl-benzooxazol-2-yl)-(3,4,5-trimethoxy-phenyl)-amine] | – | 165 to 170 °C | 583 nM
14 | COc1cc(Nc2nc3cccc(-c4ccc(C(=O)N(C)C)cc4)c3o2)cc(OC)c1OC [Example 25, N,N-Dimethyl-4-[2-(3,4,5-trimethoxy-phenylamino)-benzooxazol-7-yl]-benzamide] | – | > 280 °C | 140 nM
15 | COc1cc(Nc2nc3cccc(-c4ccn[nH]4)c3o2)cc(OC)c1OC [Example 20, [7-(2H-Pyrazol-3-yl)-benzooxazol-2-yl]-(3,4,5-trimethoxy-phenyl)-amine] | – | 185 to 189 °C | 1000 nM
16 | CNS(=O)(=O)c1ccc(-c2cccc3nc(Nc4cc(OC)c(OC)c(OC)c4)oc23)cc1 [Example 21, N-Methyl-4-[2-(3,4,5-trimethoxy-phenylamino)-benzooxazol-7-yl]-benzenesulfonamide] | 19 nM | 260 to 262 °C | 16 nM
17 | CNC(=O)c1ccc(-c2cccc3nc(Nc4cc(OC)c(OC)c(OC)c4)oc23)cc1 [Example 24, N-Methyl-4-[2-(3,4,5-trimethoxy-phenylamino)-benzooxazol-7-yl]-benzamide] | 19 nM | 258 to 259 °C | 79 nM
18 | COc1cc(Nc2nc3cccc(-c4ccc(C)c(N)c4)c3o2)cc(OC)c1OC [Example 13, [7-(3-Amino-4-methyl-phenyl)-benzooxazol-2-yl]-(3,4,5-trimethoxy-phenyl)-amine] | – | 188 to 190 °C | 174 nM
19 | COc1cc(Nc2nc3cccc(-c4cncc5ccccc45)c3o2)cc(OC)c1OC [Example 8, (7-Isoquinolin-4-yl-benzooxazol-2-yl)-(3,4,5-trimethoxy-phenyl)-amine] | – | 201 to 203 °C | 368 nM
20 | COc1cc(Nc2nc3ccnc(-c4cccc(N)c4)c3o2)cc(OC)c1OC [Example 37, [4-(3-Amino-phenyl)-oxazolo[5,4-c]pyridin-2-yl]-(3,4,5-trimethoxy-phenyl)-amine] | – | 120 to 126 °C | 240 nM

From patent US8629168B2, “Benzoxazoles and oxazolopyridines being useful as janus kinases inhibitors” (priority 2006, dated 2014)
